How the values were obtained:
[1] = parameters: method as in earlier work; settings: ref 24 (Tanaka et al., ACS Med. Chem. Lett. 2025); cited from earlier work
[2] = parameters: method as in earlier work; settings: ref 24 (Tanaka et al., ACS Med. Chem. Lett. 2025); cited from earlier work; remark: listed apart in the source
[3] = parameters: method as in earlier work; settings: ref 24 (Tanaka et al., ACS Med. Chem. Lett. 2025); cited from earlier work; remark: listed apart in the source
[4] = parameters: method as in earlier work; settings: ref 24 (Tanaka et al., ACS Med. Chem. Lett. 2025); cited from earlier work; remark: listed apart in the source
MK-801 challenged mouse = system: MK-801 challenged mouse; parameters: method as in earlier work; settings: IP, ref 24 (Tanaka et al., ACS Med. Chem. Lett. 2025); cited from earlier work
[5] = Liver microsome intrinsic clearance, human; assay type: in vitro ADME; settings: pH 7.4; human liver microsomes, predicted intrinsic clearance; read-out: LMS CLINT human
Method: (§1) were incubated in 100 mM potassium phosphate pH 7.4 buffer with 3 mM MgCl2 at 37 °C with constant shaking. After a 5 min preincubation, the reaction was initiated by the addition of NADPH (1 mM). At selected time intervals (0, 3, 7, 15, 25, and 45 min), aliquots were taken and subsequently placed into a 96-well plate containing cold acetonitrile with internal standard (50 ng/mL carbamazepine). Plates were then centrifuged at 3000 rcf (4 °C) for 10 min, and the supernatant was transferred to a separate 96-well plate and diluted 1:1 with water for LC/MS/MS analysis. The in vitro half-life ( 1/2, min, Eq. 1), intrinsic clearance (CLint, mL/min/kg, Eq. 2), and subsequent predicted hepatic clearance (CLhep, mL/min/kg, Eq. 3) was determined employing the […]
(§2) where k represents the slope from linear regression analysis of the natural log percent remaining of a test compound as a function of incubation time […]
(§3) (2) CLint = in vitroT x mg microsomes x gram liver x kg body wt ascale-up factors: of 20 (human) or 45 (rat) […]
(§4) where Qh (hepatic blood flow, mL/min/kg) is 21 (human) or 70 (rat).
(§5) LC/MS/MS Bioanalysis of Samples from Plasma Protein Binding and Intrinsic Clearance […]
(§6) Samples were analyzed on a Thermo Electron TSQ Quantum Ultra triple quad mass spectrometer (San Jose, CA) via electrospray ionization (ESI) with two Themo Electron Accella pumps (San Jose, CA), and a Leap Technologies CTC PAL autosampler (Carrboro, NC). Analytes were […]

[6] = Liver microsome intrinsic clearance, rat; assay type: in vitro ADME; settings: pH 7.4; rat liver microsomes, predicted intrinsic clearance; read-out: LMS CLINT rat
Method: as §1, §2, §3, §4, §5, §6

[7] = Liver microsome intrinsic clearance, mouse; assay type: in vitro ADME; settings: mouse liver microsomes, predicted intrinsic clearance; read-out: LMS CLINT mouse
[8] = Plasma protein binding, human (equilibrium dialysis); assay type: in vitro ADME; settings: pH 7.4, read-out: PPB human (converted)
Method: (§7) Plasma protein binding and Brain homogenate binding: Determination of fraction unbound (f u) in plasma was conducted in vitro via equilibrium dialysis using HTDialysis (HTD) membrane plates. The top half of the plate was filled with 100 uL of Dubelco’s Phosphate Buffered Saline, pH 7.4 (DPBS). Compounds were diluted into plasma from each species (5 µM final concentration), which was aliquoted in triplicate to the ‘bottom half’ of the prepared HTD plate wells. The HTD plate was sealed and incubated for 6 hours at 37 °C. Following incubation, each well (both top and bottom halves) were transferred (20 µL) to the corresponding wells of a 96-shallow-well (V-bottom) plate. The daughter plates were then matrix-matched (DPBS side wells received equal volume of plasma, and plasma side wells received equal volume of DPBS), and extraction solution (120 µL; acetonitrile containing 50 nM carbamazepine as IS) was added to all wells of both daughter plates to precipitate protein and extract test article. The plates were then sealed and centrifuged (3500 rcf) for 10 minutes at ambient temperature. Supernatant (60 µL) from each well of the daughter plates was then transferred to the corresponding wells of new daughter plates (96-shallow-well, V bottom) containing water (Milli-Q, 60 µL/well), and the plates were sealed in preparation for LC-MS/MS analysis (see LC-MS/MS analysis method below).
(§8) The unbound fraction (f u) was calculated following the equation below, and mean values for each species were calculated from 3 replicates. […]
(§9) Fraction unbound for both plasma and brain samples was determined using Equation 4.
(§10) Equation 4 Determination of fraction unbound in plasma. […]

[9] = Plasma protein binding, mouse; assay type: in vitro ADME; settings: mouse, plasma, pH 7.4, mouse plasma, bound; read-out: PPB mouse (converted)
Method: as §7, §8, §9, §10

human TREK-1 (hTREK-1) = biological target: T1, human TREK-1 (hTREK-1) (Homo sapiens, UniProt O95069); assay: TREK-1 thallium flux assay (CHO-K1 cells stably expressing hTREK-1); assay type: cell-based; settings: human TREK-1, thallium flux; read-out: h TREK-1 Tl+ IC50
T1 construct: expressed in transfected cells
T1 sequence (O95069 1-426): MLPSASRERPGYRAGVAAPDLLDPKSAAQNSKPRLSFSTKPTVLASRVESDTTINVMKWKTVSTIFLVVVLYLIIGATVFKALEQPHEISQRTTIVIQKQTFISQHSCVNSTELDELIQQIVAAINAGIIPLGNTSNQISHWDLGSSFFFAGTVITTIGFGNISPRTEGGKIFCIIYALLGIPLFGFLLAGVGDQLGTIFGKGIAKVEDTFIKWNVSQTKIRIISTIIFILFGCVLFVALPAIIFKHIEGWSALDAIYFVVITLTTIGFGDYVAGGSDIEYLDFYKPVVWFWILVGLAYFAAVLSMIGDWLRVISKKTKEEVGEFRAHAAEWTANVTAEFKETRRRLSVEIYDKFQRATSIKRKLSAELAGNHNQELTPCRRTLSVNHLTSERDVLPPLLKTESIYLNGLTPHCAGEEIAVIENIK
How it was run: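 Cells loaded with FluxOR dye were preincubated 10 min with test compound in 0.3% DMSO, then given thallium stimulus buffer. ΔRatio was fluorescence 25 s after thallium over pre-thallium baseline; % inhibition was normalised between vehicle and 10 μM reference blocker, and IC50 was fitted from concentration–response.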

[10] = Plasma protein binding, rat; assay type: in vitro ADME; settings: rat, plasma, pH 7.4, rat plasma, bound; read-out: PPB rat (converted)
Method: as §7, §8, §9, §10

[11] = Rat in vivo PK (plasma clearance) in SAR tables; settings: read-out: Rat CLp
[12] = Rat brain to plasma ratio (Kp, Kp,uu); assay type: in vivo; settings: male, Sprague Dawley, brain and plasma, intravenous, 0.2 mg/kg; rat brain:plasma
Method: Determination of brain to plasma ratio:
All animal study procedures were approved by the Institutional Animal Care and Use Committee and were conducted in accordance with the National Institutes of Health regulations of animal care covered in Principles of Laboratory Animal Care (National Institutes of Health). All rats were fasted overnight prior to testing.
For determination of the brain over plasma ratio (Kp), compounds were formulated in 8% ethanol, 32% PEG400 and 60% DMSO (v/v/v) and administered as a single 0.2 mg/kg IV dose (1 mL/kg) to male, Sprague Dawley rats (n = 1) via injection into a surgically-implanted jugular vein catheter. At 15 min post dosing, blood sample was collected into chilled, K2EDTA anticoagulant-fortified tube and immediately placed on wet ice. The blood sample was then centrifuged (1700 rcf, 5 minutes, 4 °C) to obtain plasma sample. At the same post-administration time point, whole brain sample was obtained by rapid dissection, rinsed with PBS, and immediately frozen in individual tissue collection box (dry ice). All brain and plasma samples were stored at -80 °C until […]
Sample Analysis: Concentrations in plasma and brain homogenates were quantified by liquid chromatography tandem mass spectrometry (LC-MS/MS). Whole brains were homogenized in 3 mL of 70:30 IPA:water in a mini bead beater for 3 min, and centrifuged at 3,500 g for 5 min. 5 uL of the supernatant was diluted in 15 uL of blank plasma for quantification of the analytes. Plasma samples were centrifuged at 3,500 g for 5 min. A standard curve was generated by diluting the analytes DMSO stocks with blank plasma to obtain a final concentration of 10,000 ng/ml followed by a serial dilution down to 0.5 ng/ml. Quality controls were generated by a serial dilution of the 5,000 ng/ml standard curve solution in blank plasma to obtain 3 concentrations of 500, 50, and 5 ng/ml. 20 uL of brain diluted in plasma, plasma, blank plasma, standard curve and QC samples were loaded in a V-bottom 96-well plate. 120 uL of acetonitrile containing 0.05 uM carbamazepine (internal standard) was added to each well and the plate was centrifuged at 3,500 g for 5 min. 60 uL of the supernatant of each well (protein free) was transferred to a new 96-well plate containing 60 uL of water. The plates were sealed for analysis by LC-MS/MS.
Plasma and brain tissue samples originating from in vivo studies were analyzed by electrospray ionization using an AB Sciex Q-TRAP 5500 (Foster City, CA) that was coupled to a Shimadzu LC-20AD pump (Columbia, MD) and a Leap Technologies CTC PAL auto-sampler (Carrboro, NC). Analytes were separated by gradient elution using a C18 column (3 x 50 mm, 3 mm; Fortis Technologies Ltd, Cheshire, UK) that was thermostated at 40 °C. HPLC mobile phase A was 0.1% formic acid in water (pH unadjusted); mobile phase B was 0.1% formic acid in acetonitrile (pH […]
min, with an isocratic hold for 0.5 min, before transitioning to 10% B over 0.05 min. The column was re-equilibrated (1 min) before the next sample injection. The total run time was 2.55 min, and the HPLC flow rate was 0.5 ml/min. The source temperature was set at 500 °C, and mass spectral analyses were performed using a Turbo-Ion spray source in positive ionization mode (5.0-kV spray voltage) and using multiple-reaction monitoring of transitions specific for the analytes. All data were analyzed using AB Sciex Analyst 1.5.1 software.
Brain plasma concentration ratio (Kp) was calculated by dividing brain concentration by plasma concentration for each animal. Unbound brain to unbound plasma concentration ratio (Kp,uu) is calculated using the following formula: Kp,uu = (Brain ng/g x brain fu)/(plasma ng/ml x plasma fu).
In-vitro determination of blood-brain barrier penetration potential
Blood-brain barrier penetration was determined using MDR1-MDCK cell monolayers by Absorption Systems, following their protocol. In short, compounds were incubated at […] final concentration on one side of the cell monolayer for 2 hours. […]

Row | CLint scaled at 1 µM [5] [mL/min/kg] | CLint scaled at 1 µM [6] [mL/min/kg] | CLint scaled [7] [mL/min/kg] | fraction unbound at 6 h, 5 µM [8] | fraction unbound at 6 h, 5 µM [9] | IC50 (human TREK-1 (hTREK-1)) [nM] | fraction unbound at 6 h, 5 µM [10] | clearance [11] [mL/min/kg] | Kp at 15 min [12] | Compound | ChromatoLogD [1] | aqueous solubility [2] [µM] | brain homogenate binding rat [3] [%] | brain homogenate binding mouse [4] [%] | MED, MK-801 mouse NOR (MK-801 challenged mouse) [mg/kg]
1 |  |  |  |  |  |  |  |  |  | Cc1cc(C#Cc2ccc(F)cc2)cnc1NC(=O)c1cc(NC(=O)OC(C)(C)C)ccc1Cl [Compound 5] | 5.16 | < 5 | > 99.9 | 99.4 | 10
2 | 16 | 72 | 340 | 0.039 | 0.022 |  |  |  |  | CC(=O)N1CC(F)(Cn2ncc(Cl)c2C(=O)Nc2ncc(C#Cc3ccccc3)cc2C)C1 [Compound 15e, 1-((1-Acetyl-3-fluoroazetidin-3-yl)methyl)-4-chloro-N-(3-methyl-5-(phenylethynyl)pyridin-2-yl)-1H-pyrazole-5-carboxamide] |  |  |  |  | 
3 |  |  |  | 0.012 | 0.008 | 130 | 0.016 | 27.8 | 0.97 | CC(=O)N[C@H]1CC[C@@H](n2ncc(Cl)c2C(=O)Nc2ncc(C#Cc3ccccc3)cc2C)CC1 [Compound 15f, 1-(cis-4-Acetamidocyclohexyl)-4-chloro-N-(3-methyl-5-(phenylethynyl)pyridin-2-yl)-1H-pyrazole-5-carboxamide] |  |  |  |  | 
